Read-outs that look alike come from different tables or passages of the source.
How the values were obtained:
Experiment in all cases: Post-emergence efficacy, Method A
Type in all cases: in vivo
[1] = tested on: Ipomoea hederacea (IPOHE); settings: read-out: Control of weed species after post-emergence application, IPOHE
[2] = tested on: Euphorbia heterophylla (EPHHL); settings: read-out: Control of weed species after post-emergence application, EPHHL
[3] = tested on: Chenopodium album (CHEAL); settings: read-out: Control of weed species after post-emergence application, CHEAL
[4] = tested on: Amaranthus palmeri (AMAPA); settings: read-out: Control of weed species after post-emergence application, AMAPA
[5] = tested on: Lolium perenne (LOLPE); settings: read-out: Control of weed species after post-emergence application, LOLPE
[6] = tested on: Digitaria sanguinalis (DIGSA); settings: read-out: Control of weed species after post-emergence application, DIGSA
[7] = tested on: Eleusine indica (ELEIN); settings: read-out: Control of weed species after post-emergence application, ELEIN
[8] = tested on: Echinochloa crus-galli (ECHCG); settings: read-out: Control of weed species after post-emergence application, ECHCG
[9] = tested on: Setaria faberi (SETFA); settings: read-out: Control of weed species after post-emergence application, SETFA
[10] = 500 g/Ha, 100=total damage to plant, 0=no damage, evaluated after 7 and 14 days

| Structure (SMILES) | pest or weed control at 500 g/ha [1, 10] | pest or weed control at 500 g/ha [2, 10] | pest or weed control at 500 g/ha [3, 10] | pest or weed control at 500 g/ha [4, 10] | pest or weed control at 500 g/ha [5, 10] | pest or weed control at 500 g/ha [6, 10] | pest or weed control at 500 g/ha [7, 10] | pest or weed control at 500 g/ha [8, 10] | pest or weed control at 500 g/ha [9, 10] | pest or weed control at 500 g/ha [1] | pest or weed control at 500 g/ha [2] | pest or weed control at 500 g/ha [3] | pest or weed control at 500 g/ha [4] | pest or weed control at 500 g/ha [5] | pest or weed control at 500 g/ha [6] | pest or weed control at 500 g/ha [7] | pest or weed control at 500 g/ha [8] | pest or weed control at 500 g/ha [9] |
| --- | --- | --- | --- | --- | --- | --- | --- | --- | --- | --- | --- | --- | --- | --- | --- | --- | --- | --- |
| O=S(=O)([O-])C[n+]1ccc(-c2nc(Br)ns2)cc1 [Compound A96] | 30% | 100% | 100% | 100% | 100% | 100% | 90% | 100% | 80% | – | – | – | – | – | – | – | – | – |
| N#Cc1nsc(-c2cc[n+](CCC(=O)O)cc2)n1 [Compound A89] | 10% | 20% | 30% | 30% | 10% | 90% | 80% | 60% | 80% | – | – | – | – | – | – | – | – | – |
| O=C(O)C[n+]1ccc(-c2nc(O)ns2)cc1 [Compound A98] | 10% | 30% | 40% | 50% | 0% | 70% | 10% | 40% | 20% | – | – | – | – | – | – | – | – | – |
| O=C(O)CC[n+]1ccc(-c2nc(C(F)(F)F)ns2)c(Br)c1 [Compound A79, 3-[3-bromo-4-[3-(trifluoromethyl)-1,2,4-thiadiazol-5-yl]pyridin-1-ium-1-yl]propanoic acid acetate] | 40% | 60% | 40% | 90% | 30% | 80% | 90% | 80% | 70% | – | – | – | – | – | – | – | – | – |
| O=S(=O)([O-])C[n+]1ccc(-c2nccs2)cc1 [Compound A84] | 10% | 50% | 60% | 70% | 10% | 10% | 50% | 30% | 10% | – | – | – | – | – | – | – | – | – |
| CCOP(C)(=O)C[n+]1ccc(-c2ncns2)cc1 (stereo not drawn) [Compound A47, 5-[1-[[ethoxy(methyl)phosphoryl]methyl]pyridin-1-ium-4-yl]-1,2,4-thiadiazole trifluoromethanesulfonate] | – | – | – | – | – | – | – | – | – | 10% | 10% | 60% | 60% | 0% | 10% | 10% | 10% | 10% |
| O=C(O)C[n+]1ccc(-c2ccsn2)cc1 [Compound A81] | 0% | 20% | 40% | 70% | 0% | 10% | 40% | 10% | 10% | – | – | – | – | – | – | – | – | – |
| Cn1nnnc1-c1cc[n+](CCS(=O)(=O)[O-])cc1 [Compound A26] | 10% | 20% | 10% | 0% | 10% | 20% | 10% | 10% | 10% | – | – | – | – | – | – | – | – | – |
| O=C(O)C[n+]1ccc(-c2ncno2)cc1 [Compound A13] | 30% | 70% | 50% | 100% | 10% | 60% | 50% | 50% | 70% | – | – | – | – | – | – | – | – | – |
| O=C(O)C[n+]1ccc(-c2nc(C(F)(F)F)cs2)cc1 [Compound A22] | 0% | 40% | 10% | 10% | 0% | – | – | – | 0% | – | – | – | – | – | – | – | – | – |
| COC(=O)C[n+]1ccc(-c2cnns2)cc1 [Compound A8, methyl 2-[4-(thiadiazol-5-yl)pyridin-1-ium-1-yl]acetate bromide] | 10% | 60% | 70% | – | 0% | 50% | 30% | 20% | 30% | – | – | – | – | – | – | – | – | – |
| O=C(O)CC[n+]1ccc(-c2ncns2)c(F)c1 [Compound A55] | 30% | 10% | 40% | 50% | 30% | – | – | – | 20% | – | – | – | – | – | – | – | – | – |
| CS(=O)(=O)c1c[n+](CCC(=O)O)ccc1-c1ncns1 [Compound A93, 3-[3-methylsulfonyl-4-(1,2,4-thiadiazol-5-yl)pyridin-1-ium-1-yl]propanoic acid bromide] | 30% | 30% | 30% | 60% | 10% | – | 30% | 40% | 30% | – | – | – | – | – | – | – | – | – |
| CC(C(=O)O)[n+]1ccc(-c2ncns2)cc1 (stereo not drawn) [Compound A28] | 70% | 20% | 80% | 100% | 30% | – | – | – | 80% | – | – | – | – | – | – | – | – | – |
| O=C(O)C[n+]1ccc(-c2cnns2)cc1 [Compound A9, 2-[4-(thiadiazol-5-yl)pyridin-1-ium-1-yl]acetic acid chloride] | 20% | 10% | 0% | 30% | 0% | – | – | – | 0% | – | – | – | – | – | – | – | – | – |
| O=C(O)CC[n+]1ccc(-c2ncns2)c(Cl)c1 [Compound A56] | 30% | 100% | 30% | 60% | 10% | – | – | – | 30% | – | – | – | – | – | – | – | – | – |
| Cn1nnc(-c2cc[n+](CS(=O)(=O)[O-])cc2)n1 [Compound A35] | 40% | 50% | 60% | 70% | – | 20% | 20% | 40% | 30% | – | – | – | – | – | – | – | – | – |
| CCOP(=O)([O-])C[n+]1ccc(-c2ncns2)cc1 [Compound A31] | – | – | – | – | – | – | – | – | – | 30% | – | 70% | 70% | 20% | 80% | 80% | 70% | 40% |
| CCOC(=O)C[n+]1ccc(-c2nncs2)cc1 [Compound A49] | 10% | – | 50% | 10% | 20% | 50% | 20% | 10% | 20% | – | – | – | – | – | – | – | – | – |
| O=C(O)C[n+]1ccc(-c2nc(C(F)(F)F)ns2)cc1 [Compound A1, 2-[4-[3-(trifluoromethyl)-1,2,4-thiadiazol-5-yl]pyridin-1-ium-1-yl]acetic acid 2,2,2-trifluoroacetate] | 40% | – | 90% | 100% | 70% | 70% | 90% | 60% | 90% | – | – | – | – | – | – | – | – | – |

From patent US20220104493A1, “HERBICIDAL COMPOUNDS” (SYNGENTA CROP PROTECTION AG, priority 2019, published 2022)
